Results published in PubChem BioAssay (NCI).
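1) Cells in 96-well plates. 2) Compound, 48 h, 5 concentrations. 3) Linear interpolation between surrounding doses. 4) Unreached endpoint = highest concentration. GI50 marks 50% less growth. At the TGI there is no net growth.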

Key:
Assay in all cases: NCI anticancer screen, dose series, 48 h
MDA-MB-231 breast = tested on: MDA-MB-231 breast
KM12 colon = tested on: KM12 colon
HS 578T breast = tested on: HS 578T breast
UACC-257 melanoma = tested on: UACC-257 melanoma
MALME-3M melanoma = tested on: MALME-3M melanoma
SW-620 colon = tested on: SW-620 colon
A498 renal = tested on: A498 renal
NCI-H522 lung = tested on: NCI-H522 lung
K-562 leukemia = tested on: K-562 leukemia
HCT-15 colon = tested on: HCT-15 colon
PC-3 prostate = tested on: PC-3 prostate
HCC-2998 colon = tested on: HCC-2998 colon
SK-MEL-28 melanoma = tested on: SK-MEL-28 melanoma
NCI-H460 lung = tested on: NCI-H460 lung
U251 CNS = tested on: U251 CNS
UO-31 renal = tested on: UO-31 renal
MCF7 breast = tested on: MCF7 breast
LOX IMVI melanoma = tested on: LOX IMVI melanoma
HL-60(TB) leukemia = tested on: HL-60(TB) leukemia
MDA-MB-435 = tested on: MDA-MB-435
M14 melanoma = tested on: M14 melanoma
HOP-92 NSCLC = tested on: HOP-92 NSCLC
ACHN renal = tested on: ACHN renal
A549 NSCLC = tested on: A549 NSCLC
NCI/ADR-RES ovarian = tested on: NCI/ADR-RES ovarian
HOP-62 NSCLC = tested on: HOP-62 NSCLC
CAKI-1 renal = tested on: CAKI-1 renal
NCI-H226 lung = tested on: NCI-H226 lung
SNB-75 CNS = tested on: SNB-75 CNS
RPMI-8226 leukemia = tested on: RPMI-8226 leukemia
MOLT-4 leukemia = tested on: MOLT-4 leukemia
OVCAR-8 ovarian = tested on: OVCAR-8 ovarian
SK-OV-3 ovarian = tested on: SK-OV-3 ovarian
OVCAR-5 ovarian = tested on: OVCAR-5 ovarian
RXF 393 renal = tested on: RXF 393 renal
EKVX NSCLC = tested on: EKVX NSCLC
T-47D breast = tested on: T-47D breast
CCRF-CEM leukemia = tested on: CCRF-CEM leukemia
BT-549 breast = tested on: BT-549 breast
SN12C renal = tested on: SN12C renal
OVCAR-3 ovarian = tested on: OVCAR-3 ovarian
SF-295 CNS = tested on: SF-295 CNS
786-0 renal = tested on: 786-0 renal
DU-145 prostate = tested on: DU-145 prostate
SK-MEL-2 melanoma = tested on: SK-MEL-2 melanoma
OVCAR-4 ovarian = tested on: OVCAR-4 ovarian
UACC-62 melanoma = tested on: UACC-62 melanoma
SR leukemia = tested on: SR leukemia
SF-268 CNS = tested on: SF-268 CNS
HCT-116 colon = tested on: HCT-116 colon
SF-539 CNS = tested on: SF-539 CNS
HT29 colon = tested on: HT29 colon
TK-10 renal = tested on: TK-10 renal
IGROV1 ovarian = tested on: IGROV1 ovarian
SK-MEL-5 melanoma = tested on: SK-MEL-5 melanoma
SNB-19 CNS = tested on: SNB-19 CNS
COLO 205 colon = tested on: COLO 205 colon
NCI-H23 lung = tested on: NCI-H23 lung

## N#Cc1c(-c2ccc(Cl)cc2)nc(SCc2ccc(F)cc2)nc1N1CCNCC1
MDA-MB-231 breast
  GI50: 1.83 µM
  TGI: 3.47 µM
KM12 colon
  GI50: 1.91 µM
  TGI: 3.82 µM
HS 578T breast
  GI50: 1.95 µM
  TGI: 4.45 µM
UACC-257 melanoma
  GI50: 1.64 µM
  TGI: 3.13 µM
MALME-3M melanoma
  GI50: 1.69 µM
  TGI: 3.35 µM
SW-620 colon
  GI50: 1.98 µM
  TGI: 4.04 µM
A498 renal
  GI50: 14.3 µM
  TGI: 30.1 µM
NCI-H522 lung
  GI50: 1.61 µM
  TGI: 3.08 µM
K-562 leukemia
  GI50: 2.09 µM
  TGI: 5.22 µM
HCT-15 colon
  GI50: 1.81 µM
  TGI: 3.45 µM
PC-3 prostate
  GI50: 1.79 µM
  TGI: 3.75 µM
HCC-2998 colon
  GI50: 1.8 µM
  TGI: 3.22 µM
SK-MEL-28 melanoma
  GI50: 1.74 µM
  TGI: 3.15 µM
NCI-H460 lung
  GI50: 1.97 µM
  TGI: 3.74 µM
U251 CNS
  GI50: 1.69 µM
  TGI: 3.13 µM
UO-31 renal
  GI50: 1.4 µM
  TGI: 2.83 µM
MCF7 breast
  GI50: 1.65 µM
  TGI: 3.29 µM
LOX IMVI melanoma
  GI50: 1.7 µM
  TGI: 3.07 µM
HL-60(TB) leukemia
  GI50: 1.83 µM
  TGI: 4.2 µM
MDA-MB-435
  GI50: 1.68 µM
  TGI: 3.05 µM
M14 melanoma
  GI50: 1.67 µM
  TGI: 3.09 µM
HOP-92 NSCLC
  GI50: 1.61 µM
  TGI: 8.51 µM
ACHN renal
  GI50: 1.8 µM
  TGI: 3.19 µM
A549 NSCLC
  GI50: 1.61 µM
  TGI: 3.06 µM
NCI/ADR-RES ovarian
  GI50: 1.73 µM
  TGI: 3.28 µM
HOP-62 NSCLC
  GI50: 1.64 µM
  TGI: 3.26 µM
CAKI-1 renal
  GI50: 1.4 µM
  TGI: 2.71 µM
NCI-H226 lung
  GI50: 5.97 µM
  TGI: 24.9 µM
SNB-75 CNS
  GI50: 1.46 µM
  TGI: 2.83 µM
RPMI-8226 leukemia
  GI50: 2.19 µM
  TGI: 5.23 µM
MOLT-4 leukemia
  GI50: 2.43 µM
  TGI: 6.54 µM
OVCAR-8 ovarian
  GI50: 1.84 µM
  TGI: 3.45 µM
SK-OV-3 ovarian
  GI50: 10.4 µM
  TGI: 24.8 µM
OVCAR-5 ovarian
  GI50: 2.2 µM
  TGI: 6.25 µM
RXF 393 renal
  GI50: 1.53 µM
  TGI: 2.87 µM
EKVX NSCLC
  GI50: 4.98 µM
  TGI: 19.7 µM
T-47D breast
  GI50: 1.69 µM
  TGI: 3.52 µM
CCRF-CEM leukemia
  GI50: 2.82 µM
  TGI: 8.28 µM
BT-549 breast
  GI50: 7.59 µM
  TGI: 22.1 µM
SN12C renal
  GI50: 1.73 µM
  TGI: 3.33 µM
OVCAR-3 ovarian
  GI50: 1.89 µM
  TGI: 3.71 µM
SF-295 CNS
  GI50: 1.88 µM
  TGI: 3.47 µM
786-0 renal
  GI50: 1.61 µM
  TGI: 3.2 µM
DU-145 prostate
  GI50: 2.59 µM
  TGI: 6.54 µM
SK-MEL-2 melanoma
  GI50: 14.7 µM
  TGI: 29.3 µM
OVCAR-4 ovarian
  GI50: 1.78 µM
  TGI: 4.06 µM
UACC-62 melanoma
  GI50: 1.76 µM
  TGI: 3.33 µM
SR leukemia
  GI50: 1.99 µM
  TGI: 4.79 µM
SF-268 CNS
  GI50: 2.27 µM
  TGI: 5.82 µM
HCT-116 colon
  GI50: 1.72 µM
  TGI: 3.09 µM
SF-539 CNS
  GI50: 1.71 µM
  TGI: 3.16 µM
HT29 colon
  GI50: 1.74 µM
  TGI: 3.14 µM
TK-10 renal
  GI50: 10.6 µM
  TGI: 23.9 µM
IGROV1 ovarian
  GI50: 1.8 µM
  TGI: 3.57 µM
SK-MEL-5 melanoma
  GI50: 14.3 µM
  TGI: 29.5 µM
SNB-19 CNS
  GI50: 2.21 µM
  TGI: 6.02 µM
COLO 205 colon
  GI50: 1.75 µM
  TGI: 3.2 µM

## CCO/C=N/C1=C(C#N)C(c2ccc(F)cc2)c2sc3c(CC)cccc3c2O1 (stereo not given)
MDA-MB-231 breast
  GI50: 0.664 µM
  TGI: 14.3 µM
KM12 colon
  GI50: 0.384 µM
  TGI: 13.5 µM
HS 578T breast
  GI50: 0.385 µM
  TGI: 13 µM
UACC-257 melanoma
  GI50: 12.7 µM
  TGI: 31.3 µM
NCI-H23 lung
  GI50: 0.763 µM
  TGI: 14.4 µM
MALME-3M melanoma
  GI50: 0.542 µM
  TGI: 23.8 µM
SW-620 colon
  GI50: 0.478 µM
  TGI: 13.4 µM
A498 renal
  GI50: 0.199 µM
  TGI: 0.897 µM
NCI-H522 lung
  GI50: 0.209 µM
  TGI: 5.61 µM
K-562 leukemia
  GI50: 0.292 µM
  TGI: 13.6 µM
HCT-15 colon
  GI50: 0.389 µM
  TGI: 10.9 µM
PC-3 prostate
  GI50: 0.236 µM
  TGI: 11.4 µM
HCC-2998 colon
  GI50: 0.641 µM
  TGI: 6.65 µM
SK-MEL-28 melanoma
  GI50: 1.28 µM
  TGI: 19.7 µM
NCI-H460 lung
  GI50: 0.379 µM
  TGI: 5.26 µM
U251 CNS
  GI50: 0.468 µM
  TGI: 11.8 µM
UO-31 renal
  GI50: 0.637 µM
  TGI: 17 µM
MCF7 breast
  GI50: 0.361 µM
  TGI: 12.5 µM
LOX IMVI melanoma
  GI50: 0.732 µM
  TGI: 11.1 µM
HL-60(TB) leukemia
  GI50: 0.337 µM
  TGI: 5.25 µM
MDA-MB-435
  GI50: 0.16 µM
  TGI: 0.446 µM
M14 melanoma
  GI50: 0.292 µM
  TGI: 12.8 µM
HOP-92 NSCLC
  GI50: 0.193 µM
  TGI: 6.12 µM
ACHN renal
  GI50: 0.711 µM
  TGI: 14.1 µM
A549 NSCLC
  GI50: 0.518 µM
  TGI: 14.2 µM
NCI/ADR-RES ovarian
  GI50: 0.226 µM
  TGI: 3.66 µM
HOP-62 NSCLC
  GI50: 0.453 µM
  TGI: 17.6 µM
CAKI-1 renal
  GI50: 0.359 µM
  TGI: 17.1 µM
NCI-H226 lung
  GI50: 1.03 µM
  TGI: 11.6 µM
SNB-75 CNS
  GI50: 0.206 µM
  TGI: 2.83 µM
RPMI-8226 leukemia
  GI50: 0.331 µM
  TGI: 5.52 µM
MOLT-4 leukemia
  GI50: 0.629 µM
  TGI: 13.4 µM
OVCAR-8 ovarian
  GI50: 0.508 µM
  TGI: 15.3 µM
SK-OV-3 ovarian
  GI50: 0.812 µM
  TGI: 21.6 µM
OVCAR-5 ovarian
  GI50: 0.67 µM
  TGI: 14.6 µM
RXF 393 renal
  GI50: 0.177 µM
  TGI: 0.531 µM
EKVX NSCLC
  GI50: 0.488 µM
  TGI: 16.7 µM
T-47D breast
  GI50: 0.44 µM
  TGI: 26.5 µM
CCRF-CEM leukemia
  GI50: 0.282 µM
  TGI: 6.32 µM
BT-549 breast
  GI50: 1.69 µM
  TGI: 8.53 µM
SN12C renal
  GI50: 0.609 µM
  TGI: 12.8 µM
OVCAR-3 ovarian
  GI50: 0.454 µM
  TGI: 13 µM
SF-295 CNS
  GI50: 0.27 µM
  TGI: 2.6 µM
786-0 renal
  GI50: 0.651 µM
  TGI: 13.2 µM
DU-145 prostate
  GI50: 0.401 µM
  TGI: 13 µM
SK-MEL-2 melanoma
  GI50: 0.597 µM
  TGI: 21.5 µM
OVCAR-4 ovarian
  GI50: 1.57 µM
  TGI: 17.8 µM
UACC-62 melanoma
  GI50: 0.371 µM
  TGI: 17.6 µM
SR leukemia
  GI50: 0.451 µM
  TGI: 14.9 µM
SF-268 CNS
  GI50: 2.03 µM
  TGI: 17.4 µM
HCT-116 colon
  GI50: 0.395 µM
  TGI: 11.2 µM
SF-539 CNS
  GI50: 0.28 µM
  TGI: 1.23 µM
HT29 colon
  GI50: 0.351 µM
  TGI: 11.2 µM
TK-10 renal
  GI50: 8.08 µM
  TGI: 24 µM
IGROV1 ovarian
  GI50: 0.401 µM
  TGI: 14.1 µM
SK-MEL-5 melanoma
  GI50: 0.482 µM
  TGI: 11.4 µM
SNB-19 CNS
  GI50: 0.466 µM
  TGI: 15.8 µM
COLO 205 colon
  GI50: 0.4 µM
  TGI: 2.84 µM
